The text below walks through data of patent publication US20220296583A1, “COMPOSITIONS AND METHODS FOR TREATMENT OF OVARIAN AND BREAST CANCER” (Board of Regents, The University of Texas System, priority 2021, published 2022).

Broadly, the IC50 is the concentration that inhibits the measured activity by half.

Like-named read-outs stand apart in the source and are kept apart here.

Assay [1] relates to SKOv3 xenograft. Kind of assay: SKOv3 subcutaneous xenograft, Compound B, carboplatin and paclitaxel. Format: in vivo, mice. To be noted: SKOv3 s.c.; 6 weeks; Compound B 40 mg/kg. The method, then: After treatment as indicated in (A) for three weeks, mice were weighed, and intraperitoneal nodules were excised and weighed. […] Mice were treated with single, double, or triple agents for 6 weeks. Tumor was measured once a week until the tumor burden in control group reached maximum allowance. The graphs indicate the mean±standard deviation. Statistical significance is indicated by *p<0.05, **p<0.01, and ***p<0.0001.
Six-week-old female athymic nu/nu mice were purchased from Envigo. Experiments were reviewed and all procedures were performed according to an animal protocol approved by the Institutional Animal Care and Use Committee of UT MD Anderson Cancer Center. […] Carboplatin was administrated i.p. once a week at a dose of 25 mg/kg. […] Carboplatin was treated at a dose of 30 mg/kg once a week for six weeks. […] At end of six weeks, the mice were sacrificed by CO2. The mice were dissected immediately after death and the tumors were collected and weighed.
OVCAR8 cells were injected intraperitoneally (ip) into nu/nu mice. Treatment started 7 days post injection. […] At the conclusion of the treatment, the mice were sacrificed, and the tumor was dissected and weighed (FIG. 23A). […] The tumor volume was measured at indicated time points (FIG. 23D).

The test system of assay [2] is SIK2-expressed SKOV3 cells. Kind of assay: Cell viability assessment of SKOV3. Format: cell-based.
For the next assay, the system named is A2780-CP20. Kind of assay: Cell viability, cisplatin-resistant sub-line. Format: cell-based. To be noted: 96 h. The method, then: (§1) Cisplatin-resistant A2780-CP20 and cisplatin-sensitive A27801 PAR sub-lines were plated at a density of 2000/well in 96-well plates, then treated with different concentrations of carboplatin for 96 h as indicated. Cell viability was measured with a bioluminescence assay and the IC50 was calculated. […] (C, D).
(§2) Cells were seeded in 6 replicates in black-walled and clear-bottomed 96-well plates and incubated overnight. […] The CellTiter-Glo luminescent cell viability assay (Promega) was used to evaluate the effect of treatment on cancer growth. This experiment was performed several times to optimize the concentration. […] GraphPad Prism 8 was used to generate growth curves and calculated IC50. CalcuSyn was used to evaluate additive or synergistic interactions, a combination Index (CI value).
(§3) Platinum resistance is commonly seen in ovarian cancer patients with recurrent disease. There is currently no standard chemotherapy for platinum-resistant recurrence. Targeting DNA damage and repair is an attractive therapeutic approach in platinum-resistant ovarian cancer.

In the next assay the test system is A2780-PAR. The assay is described as follows: Cell viability, cisplatin-sensitive sub-line. Format: cell-based. To be noted: 96 h. As for the experimental part: as §1, §2, §3
In another assay the test system is BT549. Kind of assay: CellTiter-Glo cell viability dose response. Format: cell-based. Conditions: Homo sapiens, BT-549, 96 h. The method, then: (§4) Luminescence was measured on a Synergy2 microplate reader (BioTek) after 10 min of shaking. Dose-response experiments were plotted and IC50 values were calculated using nonlinear curve fitting with normalized response and variable slope by GraphPad Prism 8. Drug interaction of the two-drug combination using a constant ratio were processed and a Combination Index (CI) was calculated using CalcuSyn 2.0 (BIOSOFT). CI<1 indicates synergism, CI=1 indicates additive effect and CI>1 indicates antagonism.

The next assay concerns DOV13. The assay is described as follows: CellTiter-Glo cell viability dose response. Format: cell-based. To be noted: Homo sapiens, DOV13, 96 h. As for the experimental part: as §4
Background: ATP-based viability assays read luminescence as a measure of living cells.

For the next assay, the system named is HCC5032. The assay is described as follows: CellTiter-Glo cell viability dose response. Format: cell-based. To be noted: 96 h. As for the experimental part: as §4
Another assay concerns HMEC16620. Kind of assay: CellTiter-Glo cell viability dose response. Format: cell-based. To be noted: Homo sapiens, 96 h. The method, then: as §4
The next assay deals with IGROV1. Kind of assay: CellTiter-Glo cell viability dose response. Format: cell-based. Conditions: Homo sapiens, IGROV-1, 96 h. The method, then: as §4
Another assay has as its system MDA-2774. The assay is described as follows: CellTiter-Glo cell viability dose response. Format: cell-based. To be noted: Homo sapiens, 96 h. The method, then:
as §4

The next assay deals with MDA-MD-231. Kind of assay: CellTiter-Glo cell viability dose response. Format: cell-based. To be noted: Homo sapiens, 96 h. The method, then: as §4
In the next assay the test system is NOE72. The assay is described as follows: CellTiter-Glo cell viability dose response. Format: cell-based. To be noted: 96 h. The method, then: as §4
In another assay the test system is OAW28. The assay is described as follows: CellTiter-Glo cell viability dose response. Format: cell-based. Conditions: Homo sapiens, OAW-28, 96 h. As for the experimental part: as §4
Another assay relates to OC316. Kind of assay: CellTiter-Glo cell viability dose response. Conditions: Homo sapiens, 96 h. Format: cell-based. The method, then: as §4
In a further assay the test system is OV90. Kind of assay: CellTiter-Glo cell viability dose response. Format: cell-based. Conditions: Homo sapiens, OV-90, 96 h. The method, then: as §4
In another assay the test system is OVCAR3. The assay is described as follows: CellTiter-Glo cell viability dose response. Format: cell-based. To be noted: Homo sapiens, OVCAR-3, 96 h. As for the experimental part:
as §4

The next assay concerns OVCAR8. Kind of assay: CellTiter-Glo cell viability dose response. Format: cell-based. Conditions: Homo sapiens, OVCAR-8, 96 h. The method, then: as §4
The test system of another assay is SKOv3. Kind of assay: CellTiter-Glo cell viability dose response. Format: cell-based. Conditions: Homo sapiens, SK-OV-3, 96 h. As for the experimental part: as §4
For assay [3], the system named is SKOv3, OVCAR8, HCC5032, or MDA-MB-231 cells. Kind of assay: DNA damage: γ-H2AX staining and comet assay with olaparib. Format: cell-based. To be noted: SKOv3, OVCAR8, HCC5032, MDA-MB-231.
Description: Cells were trypsinized and resuspended at 2×10^5/mL in cold PBS without Ca^2+ and Mg^2+. Cells were mixed with pre-warmed comet agarose at 1:10 (v/v) ratio. 10 uL of cell agarose mixture was plated onto comet slides pre-coated with 75 uL of agarose and chilled at 4° C. for 15 min to set. Cells were lysed in 25 mL of Lysis buffer at 4° C. for 2 hrs and washed with alkaline solution (pH 10). Comet slides were electrophoresed in cold alkaline solution at 20V for 15 min. Slides were rinsed with water and dried in 70% ethanol for 5 min. Slides were then stained with Vista Green DNA dye and viewed using an Olympus epifluorescence microscope with a FITC filter. Images were captured using a 20× objective. […] Experiments were run in triplicate and Olive Tail Moment was measured using CaspLab1.2.3β2 software (CaspLab.com). Olive Tail Moment=Tail DNA %×Tail Length. 50-200 Cells were measured for each treatment and experiments were repeated twice independently to ensure reproducibility.
Cells on 22×22 mm coverslips were fixed in 4% formaldehyde in PBS (Thermo Fisher, J19943-K2) and permeabilized with 0.1% Triton X-100 (Sigma, X100) in PBS for 15 min. Cells were blocked with 5% BSA in PBS for 30 min and then stained with antibody overnight at 4° C., followed by secondary antibody and DAPI for 1 hr. […] After 24-hrs incubation, cells were fixed in 4% formaldehyde in PBS. Cells were stained as described above. […] DNA damage visualized by γ-H2AX staining was evaluated by counting nuclear γ-H2AX puncta in each cell. […] After 8 hrs incubation, cells were fixed in 4% formaldehyde in PBS. Cells were stained as described above. Images were captured using an Olympus IX71 microscope and nuclear γ-H2AX puncta in each cells were counted using with Olympus CellSens Dimension software. HDAC5 (CST20458) and γ-H2AX (CST2577) antibodies were purchased from Cell Signaling Technology. Experiments were repeated twice independently to ensure reproducibility and 50-200 cells were counted for each treatment.
The subject of another assay is MEF2 promoter activity. The assay is described as follows: MEF2 luciferase reporter assay. Format: cell-based. Conditions: ovarian and breast cancer cell lines; time- and dose-dependent. As for the experimental part: (§5) To identify the mechanism(s) by which SIK2 inhibition decreases DNA DBS repair, it was tested whether SIK2 inhibitors decrease the phosphorylation of class IIa HDACs, which control its nuclear cytoplasmic shuttling and consequently its association with DNA. […] Next, it was investigated whether SIK2 inhibitors increase nuclear localization of HDAC5. SIK2 inhibition increased nuclear localization of HDAC5 judged by increasing nuclear florescence intensity (FIG. 7B and FIG. 8A) and the nuclear fraction of HDAC5 expression (FIG. 8B). […] Therefore, it was hypothesized that SIK2 inhibition may block MEF transcription factor activity. […] Next, it was examined whether SIK2 regulation of MEF2 activity was HDAC4/5-dependent, increasing its binding to MEF2D protein. […] These observations are consistent with the hypothesis that SIK2 inhibition increases nuclear localization of HDAC4/5, blocking MEF2 transcription (FIG. 8E).

The test system of assay [4] is SKOv3 xenograft. The assay is described as follows: SKOv3 subcutaneous xenograft, SIK2 inhibitor and olaparib. Format: in vivo, mice. To be noted: SKOv3 s.c.; oral, five times per week, 4 weeks.
The subject of a further assay is MDA-MB-231 xenograft. The assay is described as follows: MDA-MB-231 mammary fat pad xenograft, Compound B and olaparib. To be noted: 50 mg/kg, oral, 5 weeks. Format: in vivo, mice.
The next assay deals with SKOv3 cells. Conditions: RNA-seq.
The test system of assay [5] is HDAC4 (Ser246)/HDAC5 (Ser256)/HDAC7 (Ser155). The assay is described as follows: Western analysis of HDAC4/5/7 phosphorylation. Format: cell-based. To be noted: 4 μM, 24 hrs; nearly all the cell lines tested. The method, then:
as §5
Cells were incubated with and without treatment for the intervals indicated and then cells were incubated in lysis buffer (50 mM Hepes, pH 7.0, 150 mM NaCl, 1.5 mM MgCl2, 1 mM EGTA, 10, 10% glycerol, 1% Triton X-100, 50 mM NaF, 1 mM Na3VO4 1 mM PMSF, 10 μg/mL leupeptin and10 μg/mL aprotinin) on ice for 30 min. […] The protein concentration was assessed using a bicinchoninic acid (BCA) protein assay (Thermo Scientific, 23228). […]

Description for MDA-MB-231 xenograft: Forty female nu/nu mice were injected with 0.8×10^6 MDA-MB-231 cells into their fourth mammary fat pads. […] Tumors were measured every week as noted above (SKOv3 xenograft models).

As to `CC(=O)O[C@H]1C(=O)[C@@]2(C)[C@H]([C@H](OC(=O)c3ccccc3)[C@]3(O)C[C@H](OC(=O)[C@H](O)[C@@H](NC(=O)c4ccccc4)c4ccccc4)C(C)=C1C3(C)C)[C@]1(OC(C)=O)CO[C@@H]1C[C@@H]2O` [Paclitaxel, paclitaxel], in the assay on SKOv3 xenograft [1], the “tumor growth (tumor volume)” value is “significantly inhibited tumor growth”. For the same compound, the 50% inhibitory concentration (IC50) came to 127 nM in [2] (Homo sapiens, SK-OV-3, SK-OV-3, Table 7, paclitaxel combinations); 39 nM in assay [2] (Homo sapiens, SK-OV-3, SKOV3, Table 5, FIG. 25); 127 nM in assay [2] (Homo sapiens, SK-OV-3, SKOV3, Table 6, FIG. 26). The “Test/Control (%) at drug Concentration [μM]” value with MAXF Hs 578T (Table 14, 1.0E+00 μM) amounted to 38%; in the assay with MAXF Hs 578T (Table 14, 1.0E−01 μM) it was 44%; with MAXF Hs 578T (Table 14, 1.0E−02 μM) it was 89%; in the assay with MAXF Hs 578T (Table 14, 3.2E−01 μM) it was 42%; with MAXF Hs 578T (Table 14, 3.2E−02 μM), 52%; in the assay on MAXF MDA-MB-231 (Table 14, 1.0E+00 μM), 10%. Further, the “Test/Control (%) at drug Concentration [μM]” value is 17% in the assay on MAXF MDA-MB-231 (Table 14, 1.0E−01 μM); 45% in the assay with MAXF MDA-MB-231 (Table 14, 1.0E−02 μM); 110% in the assay with MAXF MDA-MB-231 (Table 14, 1.0E−03 μM); 14% in the assay on MAXF MDA-MB-231 (Table 14, 3.2E−01 μM); 24% in the assay with MAXF MDA-MB-231 (Table 14, 3.2E−02 μM).

Consider `N.N.O=C([O-])C1(C(=O)[O-])CCC1.[Pt+2]` [carboplatin], for which the IC50 was 34.9 µM with A2780-CP20 and 1100 nM in the assay with A2780-PAR. Also, the “tumor growth (tumor volume)” value in the assay on SKOv3 xenograft [1] was “significantly inhibited tumor growth”.

As to `O=C(c1cc(Cc2n[nH]c(=O)c3ccccc23)ccc1F)N1CCN(C(=O)C2CC2)CC1` [Olaparib, olaparib], the half-inhibitory concentration (IC50) in the assay with BT549 was 13.7 µM; in the assay with DOV13, 32.2 µM; in the assay on HCC5032, 14.5 µM; in the assay on HMEC16620, 1200 nM; in the assay with IGROV1, 2830 nM; with MDA-2774, 6.29 µM. For the same compound, the IC50 was 4.47 µM in the assay on MDA-MD-231; 6.38 µM in the assay with NOE72; 3660 nM with OAW28; 4.91 µM in the assay with OC316; 8.36 µM in the assay on OV90; 3.79 µM in the assay on OVCAR3. For the same compound, the results for the IC50 in the assay on OVCAR8 and with SKOv3 were 6.4 µM and 55.5 µM, respectively. In assay [3], the “levels of γ-H2AX and tailed DNA” value is listed as “modestly increased”. Besides, in the assay on MEF2 promoter activity, the MEF2 promoter activity result was “did not”. The tumor growth result in the assay on SKOv3 xenograft [4] is recorded as “significantly inhibited tumor growth”. Further, the “tumor burden / tumor volume” value with MDA-MB-231 xenograft is listed as “remained unchanged”. The “numbers of transcripts up or down-regulated by ≥2-fold” value with SKOv3 cells came to 3.

For `N.N.[Cl][Pt][Cl]` [Cisplatin, cisplatin], the IC50 was determined as 16800 nM in assay [2] (SK-OV-3, Table 9, cisplatin combinations) and 17000 nM in assay [2] (SKOV3, Table 6, FIG. 26, top locked at 100).

On to `COc1c(F)cc(F)cc1-c1c[nH]c2ncc(-c3cnn(C4CCNCC4)c3)cc12` [Compound A, 3-(3,5-difluoro-2-methoxyphenyl)-5-(1-(piperidin-4-yl)-1H-pyrazol-4-yl)-1H-pyrrolo[2,3-b]pyridine], for which the concentration for half-maximal inhibition (IC50) in the assay on BT549 came to 2.02 µM; in the assay with DOV13, 2.81 µM; in the assay with HCC5032, 2.24 µM; in the assay with HMEC16620, 3600 nM; with IGROV1, 1080 nM; in the assay with MDA-2774 it was 1.08 µM. The IC50 was 2.37 µM in the assay with MDA-MD-231; 5.75 µM with NOE72; 1710 nM in the assay with OAW28; 1.26 µM in the assay on OC316; 3.87 µM with OV90; 2.83 µM in the assay on OVCAR3. Besides, the IC50 in the assay on OVCAR8 came to 1.4 µM; in the assay on SKOv3, 1.23 µM. Besides, the “levels of γ-H2AX and tailed DNA” value in assay [3] is listed as “modestly increased”. For the same compound, in assay [5], the “phosphorylation of HDAC4/HDAC5/HDAC7” value was “significantly decreased”.
